{"source": "patent US20240140986A1", "about": "“SYNTHETIC URSOLIC ACID DERIVATIVES AND METHODS OF USE THEREOF” (REATA PHARMACEUTICALS, INC., priority 2021, published 2024)", "key": {"[1]": {"tested_on": "IFNγ-induced NO production in RAW 264.7 cells", "experiment": "Nitric Oxide Suppression Assay (IFNγ-induced NO, Griess nitrite readout)", "assay_type": "cell-based, mouse", "conditions": "for IC50: Mus musculus; for Avg NO IC50 Relative to RTA402 (fold): Table 2, ratio to RTA402", "summary_of_the_method": "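RAW 264.7 mouse macrophages in RPMI 1640 with 0.5% FBS were pretreated 2 h with compound (0.1% DMSO final), then stimulated with 20 ng/mL IFNγ for 24 h at 37° C. Supernatant nitrite was read by Griess absorbance at 525 nm against a nitrite standard curve, normalized to DMSO-IFNγ wells; IC50 from curve fit. Viability by WST-1.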"}, "[2]": {"tested_on": "Nrf2 / ARE-dependent luciferase in AREc32 reporter cell line", "experiment": "AREc32 luciferase reporter activation (Nrf2 induction)", "assay_type": "cell-based, human", "conditions": "for EC (2-fold): Homo sapiens, Arec32; for Relative Avg AREc32 EC2X Relative to RTA402 (fold): ratio to RTA402", "summary_of_the_method": "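EC2X is the concentration raising luminescence 2-fold above DMSO-treated cells, from a nonlinear-regression dose–response fit. Compounds (0.03–1000 nM) were applied for nineteen hours, starting one day after seeding 20,000 reporter cells per well. Luciferase was read with One-Glo reagent.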"}, "[3]": {"conditions": "RAW264.7, Table 2, RAW 264.7 cells, 2 h pretreatment, 20 ng/mL interferon gamma 24 h, read-out: Avg NO IC50 (nM) (Mean ± SD)"}, "[4]": {"conditions": "Table 2, concentration increasing luminescence 2-fold above vehicle, 19 h treatment, read-out: Avg AREc32 EC2X (nM) (Mean ± SD)"}, "[5]": {"conditions": "RAW264.7, Table 3, ursolic acid derivatives, read-out: Avg NO IC50 (nM) (Mean ± SD)"}, "[6]": {"conditions": "Table 3, ursolic acid derivatives, read-out: Avg ARE EC-2X (nM) (Mean ± SD)"}}, "note": "Where two headings read alike, the source gives them in different places.", "data": [{"smiles": "CNC(=O)CC[C@]12CC[C@@H](C)[C@H](C)[C@H]1[C@H]1C(=O)C=C3[C@@]4(C)C=C(C#N)C(=O)C(C)(C)[C@@H]4CC[C@@]3(C)[C@]1(C)CC2", "note": "[Compound T78]", "values": [{"measurement": "IC50", "setting": "[1]; [3]", "result": "2.43 ± 0.95", "unit": "nM"}, {"measurement": "Avg NO IC50 Relative to RTA402 (fold)", "setting": "[1]", "result": "0.683 ± 0.093", "unit": "fold"}, {"measurement": "EC (2-fold)", "setting": "[2]; [4]", "result": "2.33 ± 0.78", "unit": "nM"}, {"measurement": "Relative Avg AREc32 EC2X Relative to RTA402 (fold)", "setting": "[2]; Table 2", "result": "0.194 ± 0.058", "unit": "fold"}]}, {"smiles": "CCC(=O)NC[C@]12CC[C@@H](C)[C@H](C)[C@H]1[C@H]1C(=O)C=C3[C@@]4(C)C=C(C#N)C(=O)C(C)(C)[C@@H]4CC[C@@]3(C)[C@]1(C)CC2", "note": "[Compound T23]", "values": [{"measurement": "IC50", "setting": "[1]; [3]", "result": "3.07 ± 1.43", "unit": "nM"}, {"measurement": "IC50", "setting": "[1]; [5]", "result": "3.07 ± 1.43", "unit": "nM"}, {"measurement": "Avg NO IC50 Relative to RTA402 (fold)", "setting": "[1]", "result": "0.80 ± 0.13", "unit": "fold"}, {"measurement": "EC (2-fold)", "setting": "[2]; [4]", "result": "1.89 ± 0.91", "unit": "nM"}, {"measurement": "EC (2-fold)", "setting": "[2]; [6]", "result": "1.89 ± 0.91", "unit": "nM"}, {"measurement": "Relative Avg AREc32 EC2X Relative to RTA402 (fold)", "setting": "[2]; Table 2", "result": "0.166 ± 0.071", "unit": "fold"}]}, {"smiles": "C[C@@H]1[C@H]2[C@H]3C(=O)C=C4[C@@]5(C)C=C(C#N)C(=O)C(C)(C)[C@@H]5CC[C@@]4(C)[C@]3(C)CC[C@@]2(CN(C)C(=O)C(F)F)CC[C@H]1C", "note": "[Compound T39]", "values": [{"measurement": "IC50", "setting": "[1]; [3]", "result": "10.4 ± 2.6", "unit": "nM"}, {"measurement": "Avg NO IC50 Relative to RTA402 (fold)", "setting": "[1]", "result": "3.38 ± 0.68", "unit": "fold"}, {"measurement": "EC (2-fold)", "setting": "[2]; [4]", "result": "9.58 ± 2.31", "unit": "nM"}, {"measurement": "Relative Avg AREc32 EC2X Relative to RTA402 (fold)", "setting": "[2]; Table 2", "result": "0.799 ± 0.095", "unit": "fold"}]}, {"smiles": "C[C@@H]1[C@H]2[C@H]3C(=O)C=C4[C@@]5(C)C=C(C#N)C(=O)C(C)(C)[C@@H]5CC[C@@]4(C)[C@]3(C)CC[C@@]2(CCC(=O)O)CC[C@H]1C", "note": "[Compound T77]", "values": [{"measurement": "IC50", "setting": "[1]; [3]", "result": "8.75 ± 4.81", "unit": "nM"}, {"measurement": "Avg NO IC50 Relative to RTA402 (fold)", "setting": "[1]", "result": "2.31 ± 0.20", "unit": "fold"}, {"measurement": "EC (2-fold)", "setting": "[2]; [4]", "result": "3.16 ± 1.11", "unit": "nM"}, {"measurement": "Relative Avg AREc32 EC2X Relative to RTA402 (fold)", "setting": "[2]; Table 2", "result": "0.263 ± 0.085", "unit": "fold"}]}, {"smiles": "CC(=N)NOC(=O)[C@]12CC[C@@H](C)[C@H](C)[C@H]1[C@H]1C(=O)C=C3[C@@]4(C)C=C(C#N)C(=O)C(C)(C)[C@@H]4CC[C@@]3(C)[C@]1(C)CC2", "note": "[Compound T107]", "values": [{"measurement": "IC50", "setting": "[1]; [3]", "result": "17.7 ± 6.9", "unit": "nM"}, {"measurement": "Avg NO IC50 Relative to RTA402 (fold)", "setting": "[1]", "result": "7.07 ± 1.53", "unit": "fold"}, {"measurement": "EC (2-fold)", "setting": "[2]; [4]", "result": "12.9 ± 1.5", "unit": "nM"}, {"measurement": "Relative Avg AREc32 EC2X Relative to RTA402 (fold)", "setting": "[2]; Table 2", "result": "1.17 ± 0.25", "unit": "fold"}]}, {"smiles": "C[C@@H]1[C@H]2[C@H]3C(=O)C=C4[C@@]5(C)C=C(C#N)C(=O)C(C)(C)[C@@H]5CC[C@@]4(C)[C@]3(C)CC[C@@]2(/C=N/O)CC[C@H]1C", "note": "[Compound T84]", "values": [{"measurement": "IC50", "setting": "[1]; [3]", "result": "7.91 ± 2.32", "unit": "nM"}, {"measurement": "Avg NO IC50 Relative to RTA402 (fold)", "setting": "[1]", "result": "4.07 ± 1.76", "unit": "fold"}, {"measurement": "EC (2-fold)", "setting": "[2]; [4]", "result": "9.29 ± 1.52", "unit": "nM"}, {"measurement": "Relative Avg AREc32 EC2X Relative to RTA402 (fold)", "setting": "[2]; Table 2", "result": "1.14 ± 0.22", "unit": "fold"}]}, {"smiles": "CC1(C)CC[C@]2(CO)CC[C@]3(C)[C@H](C(=O)C=C4[C@@]5(C)C=C(C#N)C(=O)C(C)(C)[C@@H]5CC[C@]43C)[C@@H]2C1", "note": "[CC13, reference compound]", "values": [{"measurement": "IC50", "setting": "[1]; RAW264.7, Table 3, oleanolic acid derivative analogs, read-out: Avg NO IC50", "result": 0.5, "unit": "nM"}, {"measurement": "EC (2-fold)", "setting": "[2]; Table 3, oleanolic acid derivative analogs, read-out: Avg ARE EC-2X", "result": 8.82, "unit": "nM"}]}, {"smiles": "COC(=O)N1CCC(=O)N1C[C@]12CC[C@@H](C)[C@H](C)[C@H]1[C@H]1C(=O)C=C3[C@@]4(C)C=C(C#N)C(=O)C(C)(C)[C@@H]4CC[C@@]3(C)[C@]1(C)CC2", "note": "[Compound T53]", "values": [{"measurement": "IC50", "setting": "[1]; [3]", "result": "2.79 ± 0.59", "unit": "nM"}, {"measurement": "Avg NO IC50 Relative to RTA402 (fold)", "setting": "[1]", "result": "0.82 ± 0.08", "unit": "fold"}, {"measurement": "EC (2-fold)", "setting": "[2]; [4]", "result": "1.74 ± 0.47", "unit": "nM"}, {"measurement": "Relative Avg AREc32 EC2X Relative to RTA402 (fold)", "setting": "[2]; Table 2", "result": "0.173 ± 0.054", "unit": "fold"}]}, {"smiles": "C[C@@H]1[C@H]2[C@H]3C(=O)C=C4[C@@]5(C)C=C(C#N)C(=O)C(C)(C)[C@@H]5CC[C@@]4(C)[C@]3(C)CC[C@@]2(CN(C)C(=O)C(C)(F)F)CC[C@H]1C", "note": "[Compound T38]", "values": [{"measurement": "IC50", "setting": "[1]; [3]", "result": "39.2 ± 4.2", "unit": "nM"}, {"measurement": "Avg NO IC50 Relative to RTA402 (fold)", "setting": "[1]", "result": "9.52 ± 1.82", "unit": "fold"}, {"measurement": "EC (2-fold)", "setting": "[2]; [4]", "result": "34.5 ± 7.6", "unit": "nM"}, {"measurement": "Relative Avg AREc32 EC2X Relative to RTA402 (fold)", "setting": "[2]; Table 2", "result": "2.76 ± 0.32", "unit": "fold"}]}, {"smiles": "C[C@@H]1[C@H]2[C@H]3C(=O)C=C4[C@@]5(C)C=C(C#N)C(=O)C(C)(C)[C@@H]5CC[C@@]4(C)[C@]3(C)CC[C@@]2(CN2CCC2)CC[C@H]1C", "note": "[Compound T55]", "values": [{"measurement": "IC50", "setting": "[1]; [3]", "result": "14.6 ± 3", "unit": "nM"}, {"measurement": "IC50", "setting": "[1]; [5]", "result": "14.6 ± 3", "unit": "nM"}, {"measurement": "Avg NO IC50 Relative to RTA402 (fold)", "setting": "[1]", "result": "5.21 ± 2.77", "unit": "fold"}, {"measurement": "EC (2-fold)", "setting": "[2]; [4]", "result": "14.4 ± 1.3", "unit": "nM"}, {"measurement": "EC (2-fold)", "setting": "[2]; [6]", "result": "14.4 ± 1.3", "unit": "nM"}, {"measurement": "Relative Avg AREc32 EC2X Relative to RTA402 (fold)", "setting": "[2]; Table 2", "result": "1.12 ± 0.09", "unit": "fold"}]}, {"smiles": "CNC(=O)C[C@]12CC[C@@H](C)[C@H](C)[C@H]1[C@H]1C(=O)C=C3[C@@]4(C)C=C(C#N)C(=O)C(C)(C)[C@@H]4CC[C@@]3(C)[C@]1(C)CC2", "note": "[Compound T91]", "values": [{"measurement": "IC50", "setting": "[1]; [3]", "result": "4.69 ± 1.87", "unit": "nM"}, {"measurement": "Avg NO IC50 Relative to RTA402 (fold)", "setting": "[1]", "result": "2.44 ± 1.39", "unit": "fold"}, {"measurement": "EC (2-fold)", "setting": "[2]; [4]", "result": "2.96 ± 0.77", "unit": "nM"}, {"measurement": "Relative Avg AREc32 EC2X Relative to RTA402 (fold)", "setting": "[2]; Table 2", "result": "0.359 ± 0.078", "unit": "fold"}]}, {"smiles": "C[C@@H]1[C@H]2[C@H]3C(=O)C=C4[C@@]5(C)C=C(C#N)C(=O)C(C)(C)[C@@H]5CC[C@@]4(C)[C@]3(C)CC[C@@]2(CC(=O)NC2CC2)CC[C@H]1C", "note": "[Compound T92]", "values": [{"measurement": "IC50", "setting": "[1]; [3]", "result": "5.97 ± 2.71", "unit": "nM"}, {"measurement": "Avg NO IC50 Relative to RTA402 (fold)", "setting": "[1]", "result": "3.68 ± 1.63", "unit": "fold"}, {"measurement": "EC (2-fold)", "setting": "[2]; [4]", "result": "4.33 ± 0.75", "unit": "nM"}, {"measurement": "Relative Avg AREc32 EC2X Relative to RTA402 (fold)", "setting": "[2]; Table 2", "result": "0.555 ± 0.181", "unit": "fold"}]}, {"smiles": "C[C@@H]1[C@H]2[C@H]3C(=O)C=C4[C@@]5(C)C=C(C#N)C(=O)C(C)(C)[C@@H]5CC[C@@]4(C)[C@]3(C)CC[C@@]2(CNC(=O)C(C)(F)F)CC[C@H]1C", "note": "[Compound T29]", "values": [{"measurement": "IC50", "setting": "[1]; [3]", "result": "4.21 ± 1.75", "unit": "nM"}, {"measurement": "Avg NO IC50 Relative to RTA402 (fold)", "setting": "[1]", "result": "1.47 ± 0.32", "unit": "fold"}, {"measurement": "EC (2-fold)", "setting": "[2]; [4]", "result": "3.88 ± 1.19", "unit": "nM"}, {"measurement": "Relative Avg AREc32 EC2X Relative to RTA402 (fold)", "setting": "[2]; Table 2", "result": "0.317 ± 0.086", "unit": "fold"}]}]}
